Experimental data: the supplement of paper PMC10307832

How the values were obtained:
Experiment in all cases: relative viability (nuclei count vs DMSO), 5 days (fraction); higher = more cells survive
[1] = compound: CC1(C)CCC(CN2CCN(c3ccc(C(=O)NS(=O)(=O)c4ccc(NCC5CCOCC5)c([N+](=O)[O-])c4)c(Oc4cnc5[nH]ccc5c4)c3)CC2)=C(c2ccc(Cl)cc2)C1 [Venetoclax] + Cc1cc(Nc2cc(N3CCN(C)CC3)nc(Sc3ccc(NC(=O)C4CC4)cc3)n2)n[nH]1 [Tozasertib] (partner 0.1 µM)
Summary of the method: (§1)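 Lung cancer cell lines in 1536-well plates got either a single drug or a fixed anchor-drug dose together with five library-drug doses (not always all listed) in √10 steps, by pin tool, on the day after seeding. Nuclei were counted after 5 days, and relative viability is the treated-to-vehicle ratio of nuclei counts. Values are medians of duplicate plates.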

[2] = compound: Cn1cnc2c(F)c(Nc3ccc(Br)cc3Cl)c(C(=O)NOCCO)cc21 [Selumetinib] + CC(=O)c1c(C)c2cnc(Nc3ccc(N4CCNCC4)cn3)nc2n(C2CCCC2)c1=O [Palbociclib] (partner 0.5 µM)
Summary of the method: as §1

[3] = compound: Cn1cnc2c(F)c(Nc3ccc(Br)cc3Cl)c(C(=O)NOCCO)cc21 [Selumetinib] + CC1(C)CCC(c2ccc(Cl)cc2)=C(CN2CCN(c3ccc(C(=O)NS(=O)(=O)c4ccc(N[C@H](CCN5CCOCC5)CSc5ccccc5)c(S(=O)(=O)C(F)(F)F)c4)cc3)CC2)C1 [Navitoclax] (partner 0.5 µM)
Summary of the method: as §1

[4] = compound: Cn1cnc2c(F)c(Nc3ccc(Br)cc3Cl)c(C(=O)NOCCO)cc21 [Selumetinib] + C[C@]1(O)C[C@@H](c2nc(-c3ccc4ccc(-c5ccccc5)nc4c3)c3c(N)nccn32)C1 [Linsitinib] (partner 1 µM)
Summary of the method: as §1

Cell Line	relative viability ([1]; first compound 0.01 µM)	relative viability ([1]; first compound 0.03162 µM)	relative viability ([1]; first compound 0.1 µM)	relative viability ([1]; first compound 0.3162 µM)	relative viability ([1]; first compound 1 µM)	relative viability ([2]; first compound 0.02 µM)	relative viability ([2]; first compound 0.06325 µM)	relative viability ([2]; first compound 0.2 µM)	relative viability ([2]; first compound 0.6325 µM)	relative viability ([3]; first compound 0.02 µM)	relative viability ([3]; first compound 0.06325 µM)	relative viability ([3]; first compound 0.2 µM)	relative viability ([3]; first compound 0.6325 µM)	relative viability ([4]; first compound 0.02 µM)	relative viability ([4]; first compound 0.06325 µM)	relative viability ([4]; first compound 0.2 µM)	relative viability ([4]; first compound 0.6325 µM)
NCI-H2087	0.278	0.261	0.245	0.241	0.229	0.197	0.168	0.144	0.0937	0.838	0.585	0.457	0.431	0.817	0.647	0.595	0.374
COR-L 105	0.274	0.397	0.321	0.32	0.335	0.449	0.404	0.383	0.392	0.78	0.574	0.642	0.451	1	0.828	0.606	0.623
SW 1573	0.217	0.206	0.207	0.137	0.171	0.337	0.294	0.365	0.312	0.965	0.853	0.716	0.729	0.779	0.642	0.683	0.596
NCI-H1355	0.548	0.62	0.482	0.549	0.42	0.315	0.284	0.266	0.241	0.893	0.932	0.776	0.513	0.72	0.744	0.734	0.555
RERF-LC-KJ	0.444	0.504	0.533	0.45	0.443	1.03	0.946	0.84	0.908	0.726	0.819	0.939	0.758	0.828	0.949	0.862	0.796
NCI-H727	0.765	0.61	0.496	0.58	0.58	0.473	0.517	0.489	0.423	0.237	0.184	0.119	0.103	0.17	0.207	0.168	0.166
NCI-H1734	0.275	0.241	0.216	0.269	0.239	0.304	0.332	0.36	0.313	0.862	0.818	0.87	0.679	0.862	0.849	0.865	0.816
NCI-H2126	0.822	0.791	0.867	0.86	0.759	0.333	0.265	0.35	0.333	0.789	0.764	0.75	0.59	0.679	0.674	0.595	0.538
NCI-H23	0.492	0.347	0.368	0.323	0.418	0.494	0.393	0.354	0.314	0.851	0.827	0.672	0.63	0.585	0.53	0.43	0.369
EMC-BAC-2	0.3	0.285	0.28	0.273	0.259	0.554	0.53	0.55	0.52	0.964	0.989	1.07	1.06	0.732	0.668	0.707	0.743
NCI-H2023	0.328	0.407	0.392	0.393	0.218	0.355	0.299	0.304	0.339	0.937	0.924	0.959	0.783	0.583	0.546	0.466	0.576
NCI-H647	0.228	0.225	0.361	0.22	0.262	0.339	0.353	0.354	0.364	1.26	0.935	0.874	0.959	1.28	1.06	0.827	0.803
NCI-H1975	0.763	0.711	0.726	0.658	0.374	0.517	0.509	0.467	0.388	1.23	1.22	1.01	0.728	1	0.886	0.892	0.623
NCI-H1437	0.392	0.426	0.408	0.376	0.336	0.319	0.292	0.258	0.224	1.07	0.856	0.75	0.487	0.905	0.714	0.423	0.277
NCI-H1666	0.706	0.589	0.623	0.622	0.587	0.669	0.649	0.699	0.668	0.773	0.582	0.592	0.479	0.643	0.614	0.606	0.54
NCI-H2085	0.833	0.77	0.757	0.761	0.815	0.464	0.462	0.415	0.355	1.09	1.07	0.913	0.795	0.863	0.82	0.737	0.763
LXF-289	0.217	0.218	0.187	0.216	0.213	0.554	0.529	0.468	0.468	0.913	0.894	0.754	0.754	1	0.853	0.745	0.719
NCI-H322M	0.495	0.477	0.477	0.555	0.493	0.403	0.413	0.459	0.448	1.14	0.795	1.05	1.04	0.717	0.608	0.67	0.626

Cell Line	relative viability ([1]; first compound 0.01 µM)	relative viability ([1]; first compound 0.03162 µM)	relative viability ([1]; first compound 0.1 µM)	relative viability ([1]; first compound 0.3162 µM)	relative viability ([1]; first compound 1 µM)	relative viability ([2]; first compound 0.02 µM)	relative viability ([2]; first compound 0.06325 µM)	relative viability ([2]; first compound 0.2 µM)	relative viability ([2]; first compound 0.6325 µM)	relative viability ([3]; first compound 0.02 µM)	relative viability ([3]; first compound 0.06325 µM)	relative viability ([3]; first compound 0.2 µM)	relative viability ([3]; first compound 0.6325 µM)	relative viability ([4]; first compound 0.02 µM)	relative viability ([4]; first compound 0.06325 µM)	relative viability ([4]; first compound 0.2 µM)	relative viability ([4]; first compound 0.6325 µM)
LU99A	0.28	0.26	0.234	0.295	0.321	0.427	0.418	0.375	0.425	0.856	0.816	0.928	0.563	0.49	0.567	0.511	0.566
PC-14	0.646	0.601	0.576	0.553	0.531	0.482	0.369	0.363	0.309	1.02	1.03	0.957	0.949	0.935	0.87	0.912	0.9
HARA	0.0626	0.109	0.0841	0.116	0.106	0.359	0.244	0.236	0.165	1.17	1.13	1.09	1.1	0.916	0.837	0.84	0.334
SK-MES-1	0.824	0.968	0.958	0.852	0.708	0.304	0.322	0.315	0.264	1.41	1.32	1.26	1.06	1.03	1.03	0.814	0.775
HOP-62	0.414	0.321	0.409	0.31	0.313	0.469	0.489	0.458	0.37	1.01	0.997	0.929	0.517	0.98	1.05	0.93	0.469
LK-2	0.154	0.18	0.19	0.18	0.192	0.772	0.851	0.706	0.802	0.88	0.896	0.838	1.06	0.466	0.551	0.587	0.312
HCC-44	0.747	0.978	0.894	0.791	0.715	1	0.971	1.01	1.09	0.986	0.847	0.794	0.836	0.701	0.639	0.539	0.575
BEN	0.426	0.476	0.373	0.476	0.38	0.466	0.53	0.462	0.509	0.0655	0.0564	0.0657	0.0674	0.879	0.898	0.745	0.8
NCI-H2405	0.741	0.783	0.632	0.736	0.645	0.485	0.434	0.395	0.344	0.771	0.636	0.525	0.37	0.77	0.575	0.546	0.392
NCI-H1395	0.851	0.85	0.705	0.782	0.762	0.561	0.558	0.574	0.54	1.08	1.13	1.22	1.28	1.05	0.939	0.973	1.08
201T	0.826	0.957	0.945	0.91	0.941	0.357	0.352	0.314	0.329	1.17	1.14	1.17	1.15	0.987	0.978	0.949	0.932
NCI-H838	0.254	0.246	0.303	0.238	0.239	0.206	0.191	0.201	0.203	1.01	0.965	0.963	0.88	0.883	0.848	0.807	0.735
HCC-366	0.094	0.119	0.123	0.0769	0.0514	0.3	0.31	0.256	0.143	1.11	0.954	0.917	0.757	0.525	0.406	0.249	0.229
NCI-H1651	0.751	0.681	0.636	0.639	0.599	0.512	0.501	0.475	0.489	1.1	0.941	0.887	0.846	0.973	0.962	0.815	0.902
LOU-NH91	0.652	0.697	0.576	0.684	0.604	0.583	0.611	0.546	0.535	0.631	0.607	0.514	0.556	0.773	0.846	0.783	0.727
NCI-H520	0.413	0.406	0.434	0.443	0.403	0.211	0.236	0.237	0.258	1.08	1.1	1.12	1.07	1.08	0.944	1.09	1.07
H3255	0.564	0.525	0.615	0.591	0.745	0.318	0.353	0.339	0.339	0.428	0.487	0.342	0.436	0.974	0.899	0.918	0.825
